Measurements as given in patent publication US8258162B2, “Catechol derivative, pharmaceutical composition containing the same, use of the catechol derivative, and use of the pharmaceutical composition” (Kissei Pharmaceutical Co., Ltd., priority 2008, dated 2012).

Columns and labels:
[1] = system: rat cryopreserved hepatocytes; assay: Rat hepatocyte toxicities (cell viability, ATP activity); assay type: cell-based; details: concentration that shows 50% of the number of viable cells of control, 4 hours at 37° C.
Rat liver COMT = assay: Inhibition of rat liver COMT activity after oral administration; details: 10 mg/kg oral, percentage of Control sample (100%); for Liver (COMT activity %) 1 hour: 1 hour after administration; for Liver (COMT activity %) 5 hours: 5 hours after administration
Rat brain COMT = assay: Inhibition of rat brain COMT activity after oral administration; details: 10 mg/kg oral, percentage of Control sample (100%); for Brain (COMT activity %) 1 hour: 1 hour after administration; for Brain (COMT activity %) 5 hours: 5 hours after administration
[2] = system: unilateral 6-hydroxydopamine-lesioned hemi-parkinsonian rats; assay: Potentiation of the efficacy of L-dopa in unilateral 6-hydroxydopamine-lesioned hemi-parkinsonian rats (turning behavior); assay type: in vivo, rat; details: 10 mg/kg oral with 5 mg/kg L-dopa and 30 mg/kg carbidopa; for Duration: duration of contralateral rotation response; for Total counts: summed contralateral rotation counts during drug action
recombinant human COMT = target: T1, recombinant human COMT (Homo sapiens, UniProt P21964); assay: Human COMT inhibitory potency; assay type: biochemical; details: catechol substrate, [3H]-S-adenosyl-L-methionine, 37° C. 30 minutes
T1 construct: GST (N, cleaved yes); made in house; host or cells: E. coli BL21 (DE3) Codon Plus RP, pGEX-2T vector
T1 sequence (P21964 with tags, fused parts or gaps): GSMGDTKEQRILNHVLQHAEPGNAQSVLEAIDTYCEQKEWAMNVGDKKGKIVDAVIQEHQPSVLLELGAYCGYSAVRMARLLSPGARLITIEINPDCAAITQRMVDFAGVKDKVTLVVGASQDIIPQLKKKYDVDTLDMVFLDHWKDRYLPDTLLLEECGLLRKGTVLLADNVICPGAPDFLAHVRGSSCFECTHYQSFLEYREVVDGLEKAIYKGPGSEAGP

CCOC(=O)c1cc(O)c(O)c([N+](=O)[O-])c1C(=O)c1ccccc1 [Compound 1-1, Ethyl 2-benzoyl-4,5-dihydroxy-3-nitrobenzoate]
EC50 [1]: 262000 nM | Liver (COMT activity %) 1 hour (Rat liver COMT): 0.6% | Liver (COMT activity %) 5 hours (Rat liver COMT): 9.0% | Brain (COMT activity %) 1 hour (Rat brain COMT): 8.9% | Brain (COMT activity %) 5 hours (Rat brain COMT): 56.2% | Duration [2]: 522.5 min | Total counts [2]: 3188.3 | IC50 (recombinant human COMT): 7.8 nM

COC(=O)c1cc(O)c(O)c([N+](=O)[O-])c1C(=O)c1ccccc1 [Compound 1-2]
EC50 [1]: > 300000 nM | Duration [2]: 452.9 min | Total counts [2]: 3569.0 | IC50 (recombinant human COMT): 8.9 nM

CC(=O)c1ccc(C(=O)c2c(C(=O)OC(C)C)cc(O)c(O)c2[N+](=O)[O-])cc1 [Compound 1-7]
IC50 (recombinant human COMT): 4 nM

COC(=O)c1ccc(C(=O)c2c(C(=O)OC(C)C)cc(O)c(O)c2[N+](=O)[O-])cc1 [Compound 1-8]
IC50 (recombinant human COMT): 8.3 nM

CC(C)OC(=O)c1cc(O)c(O)c([N+](=O)[O-])c1C(=O)c1ccccc1C#N [Compound 1-9]
IC50 (recombinant human COMT): 7 nM

CCOC(=O)c1cc(O)c(O)c([N+](=O)[O-])c1C(=O)c1cccs1 [Compound 1-13]
EC50 [1]: > 300000 nM | Liver (COMT activity %) 1 hour (Rat liver COMT): 6.6% | Liver (COMT activity %) 5 hours (Rat liver COMT): 15.3% | Brain (COMT activity %) 1 hour (Rat brain COMT): 14.8% | Brain (COMT activity %) 5 hours (Rat brain COMT): 61.0% | Duration [2]: 461.4 min | Total counts [2]: 3395.7 | IC50 (recombinant human COMT): 8.4 nM

CCOC(=O)c1cc(O)c(O)c([N+](=O)[O-])c1C(=O)c1ccno1 [Compound 1-15]
IC50 (recombinant human COMT): 7.1 nM

CCOC(=O)c1cc(O)c(O)c([N+](=O)[O-])c1C(=O)c1nccs1 [Compound 1-18]
IC50 (recombinant human COMT): 4.7 nM

COC(=O)c1cc(O)c(O)c([N+](=O)[O-])c1C(C)=O [Compound 1-20]
EC50 [1]: > 300000 nM | IC50 (recombinant human COMT): 9.5 nM

CCOC(=O)c1cc(O)c(O)c([N+](=O)[O-])c1C(=O)C(F)(F)F [Compound 1-23]
IC50 (recombinant human COMT): 8.1 nM

Cc1ccc(C(=O)c2c(C#N)cc(O)c(O)c2[N+](=O)[O-])cc1 [Compound 1-27]
EC50 [1]: > 300000 nM | IC50 (recombinant human COMT): 9.7 nM

N#Cc1cc(O)c(O)c([N+](=O)[O-])c1C(=O)c1ccccc1F [Compound 1-29, 2-(2-fluorobenzoyl)-4,5-dihydroxy-3-nitrobenzonitrile]
IC50 (recombinant human COMT): 6.8 nM

N#Cc1cc(O)c(O)c([N+](=O)[O-])c1C(=O)C1CCCCC1 [Compound 1-34]
EC50 [1]: > 300000 nM | Liver (COMT activity %) 1 hour (Rat liver COMT): 0.0% | Liver (COMT activity %) 5 hours (Rat liver COMT): 1.0% | Brain (COMT activity %) 1 hour (Rat brain COMT): 62.2% | Brain (COMT activity %) 5 hours (Rat brain COMT): 78.7% | IC50 (recombinant human COMT): 8.1 nM

N#Cc1cc(O)c(O)c([N+](=O)[O-])c1C(=O)c1ccno1 [Compound 1-37]
IC50 (recombinant human COMT): 8.6 nM

Cc1cc(C(=O)c2c(C#N)cc(O)c(O)c2[N+](=O)[O-])no1 [Compound 1-38]
EC50 [1]: > 300000 nM | IC50 (recombinant human COMT): 8.6 nM

N#Cc1cc(O)c(O)c([N+](=O)[O-])c1C(=O)N1CCCCC1 [Compound 1-43]
EC50 [1]: > 300000 nM

Cc1ccc(C(=O)c2cc(O)c(O)c([N+](=O)[O-])c2)cc1 [Tolcapone, 3,4-dihydroxy-4′-methyl-5-nitro-benzophenone, reference compound]
Liver (COMT activity %) 1 hour (Rat liver COMT): 2.5% | Liver (COMT activity %) 5 hours (Rat liver COMT): 30.0% | Duration [2]: 430.0 min | Total counts [2]: 2578.7

O=C(c1ccccc1)c1ccc(O)c(O)c1[N+](=O)[O-] [compound 1, (3,4-dihydroxy-2-nitrophenyl)phenymethanone, reference compound]
IC50 (recombinant human COMT): 40.4 nM

O=C(c1ccccc1)c1cc(O)c(O)c([N+](=O)[O-])c1C(=O)c1ccccc1 [compound 2, (6-benzoyl-3,4-dihydroxy-2-nitrophenyl)phenylmethanone, reference compound]
IC50 (recombinant human COMT): 54 nM

CCOC(=O)Oc1cc(C(=O)c2ccccc2)c(C(=O)c2ccccc2)c([N+](=O)[O-])c1OC(=O)OCC [compound 3, carbonic acid 4,5-dibenzoyl-2-ethoxycarbonyloxy-3-nitro-phenyl ester ethy ester, reference compound]
IC50 (recombinant human COMT): 1180 nM
